Data from patent publication US20100144708A1, “HETEROCYCLIC COMPOUNDS CONTAINING NITROGEN ATOMS OR PHARMACEUTICALLY ACCEPTABLE SALTS THEREOF, PROCESS FOR THE PREPARATION THEREOF AND PHARMACEUTICAL COMPOSITION COMPRISING THE SAME FOR TREATMENT OF CANCER” (Korea Research Instititute of Bioscience and Biotechnology, priority 2006, published 2010).

How the values were obtained:
PC-3 (prostate cancer) = test: Test for inhibition of tumor cell growth (SRB), PC-3; type: cell-based, Human; conditions: 48 hours, SRB staining; for GI50: Homo sapiens, read-out: GI50 PC-3 (prostate ancer)
In short: (§1)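 Cells seeded in RPMI 1640 with 5% FBS, exposed to compound (final […], units as printed) for 48 hours at 37° C with 5% CO2, including a time-zero plate. TCA-fixed, SRB-stained, absorbance at 540 nm as percent of control; GI50 is the 50% growth-inhibition concentration.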

ACHN (kidney cancer) = test: Test for inhibition of tumor cell growth (SRB), ACHN; type: cell-based, Human; conditions: 48 hours, SRB staining; for GI50: Homo sapiens, ACHN
In short: as §1

NUGC-3 (gastric cancer) = test: Test for inhibition of tumor cell growth (SRB), NUGC-3; type: cell-based, Human; conditions: 48 hours, SRB staining; for GI50: Homo sapiens, NUGC-3
In short: as §1

[1] = test system: MBA-MB-231 (breast cancer); test: Test for inhibition of tumor cell growth (SRB), MBA-MB-231; type: cell-based, Human; conditions: 48 hours, SRB staining; for GI50: Homo sapiens
In short: as §1

[2] = test system: human prostate cancer cell line PC-3; test: Test for tumor growth inhibition in animal model (PC-3 xenograft); type: in vivo; conditions: 2 mg/kg Q2D, 10 times, intraperitoneal
Method: Female S.P.F BALB/c nude mice (7-week-old) were grafted with 3×10^7 cells/□ of human prostate cancer cell line PC-3, and then intraperitoneally administered with the compound prepared in Example 55 at a daily dosage of 30 mg/kg 20 times. A positive control group was intraperitoneally administered with adriamycin at a daily dosage of 2 mg/kg 10 times once every two days.
The changes in their body weight are shown in FIG. 1, the changes in tumor size are shown in FIG. 2, and the tumor weights measured on the final day (day 21) are shown in FIG. 3.

| GI50 (PC-3 (prostate cancer)) | GI50 (ACHN (kidney cancer)) | GI50 (NUGC-3 (gastric cancer)) | GI50 [1] | Compound | GI50 PC-3 (prostate ancer) (PC-3 (prostate cancer)) | GI50 ACHN (kidney cancer) (ACHN (kidney cancer)) | GI50 NUGC-3 (gastric cancer) (NUGC-3 (gastric cancer)) | GI50 MBA-MB-231 (breast cancer) [1] | deaths [2] | effect of inhibiting tumor growth ([2]; final day (day 21), p<0.01) | reduction of tumor weight ([2]; final day (day 21), p<0.05) |
| --- | --- | --- | --- | --- | --- | --- | --- | --- | --- | --- | --- |
| > 10 µg/mL | > 10 µg/mL | > 10 µg/mL | > 10 µg/mL | CCCCCCCCCS(=O)(=O)N1CC[N+](C)(CC)CC1 [Example 99, 1-ethyl-1-methyl-4-(nonane-1-sulfonyl)piperazin-1-ium iodide] | – | – | – | – | – | – | – |
| 4.08 µg/mL | > 10 µg/mL | 1.73 µg/mL | > 10 µg/mL | CCCCCCCCCS(=O)(=O)N1CC[N+](CC)(Cc2ccccc2)CC1 [Example 100, 1-benzyl-1-ethyl-4-(nonane-1-sulfonyl)piperazin-1-ium bromide] | – | – | – | – | – | – | – |
| 2.34 µg/mL | > 10 µg/mL | 3.28 µg/mL | > 10 µg/mL | C=CC[N+]1(CC)CCN(S(=O)(=O)CCCCCCCCC)CC1 [Example 101, 1-allyl-1-ethyl-4-(nonane-1-sulfonyl)piperazin-1-ium bromide] | – | – | – | – | – | – | – |
| > 10 µg/mL | > 10 µg/mL | > 10 µg/mL | > 10 µg/mL | CCCCCCCCCS(=O)(=O)N1CC[N+](C)(C)CC1 [Example 102, 1,1-dimethyl-4-(nonane-1-sulfonyl)piperazin-1-ium iodide] | – | – | – | – | – | – | – |
| 1.25 µg/mL | > 10 µg/mL | 3.45 µg/mL | > 10 µg/mL | CCCCCCCCCS(=O)(=O)N1CC[N+](C)(Cc2ccccc2)CC1 [Example 103, 1-benzyl-1-methyl-4-(nonane-1-sulfonyl)piperazin-1-ium bromide] | – | – | – | – | – | – | – |
| 3.45 µg/mL | > 10 µg/mL | > 10 µg/mL | > 10 µg/mL | CCCCCCCCCS(=O)(=O)N1CC[N+](C)(Cc2ccc(F)cc2)CC1 [Example 104, 1-(4-fluorobenzyl)-1-methyl-4-(nonane-1-sulfonyl)piperazin-1-ium bromide] | – | – | – | – | – | – | – |
| 0.61 µg/mL | 4.13 µg/mL | 1.6 µg/mL | 3.56 µg/mL | CCCCCCCCCCS(=O)(=O)N1CC[N+](C)(Cc2cccc(C)c2)CC1 [Example 106, 4-(decane-1-sulfonyl)-1-methyl-1-(3-methylbenzyl)piperazin-1-ium bromide] | – | – | – | – | – | – | – |
| 1.05 µg/mL | > 10 µg/mL | 2.72 µg/mL | > 10 µg/mL | CCCCCCCCCCS(=O)(=O)N1CC[N+](C)(Cc2ccc(C)cc2)CC1 [Example 107, 4-(decane-1-sulfonyl)-1-methyl-1-(4-methylbenzyl)piperazin-1-ium bromide] | – | – | – | – | – | – | – |
| 0.45 µg/mL | 1.42 µg/mL | 0.65 µg/mL | 1.19 µg/mL | CCCCCCCCCCCCS(=O)(=O)N1CC[N+](C)(Cc2cccc(C)c2)CC1 [Example 108, 4-(dodecane-1-sulfonyl)-1-methyl-1-(3-methylbenzyl)piperazin-1-ium bromide] | – | – | – | – | – | – | – |
| 0.43 µg/mL | 1.69 µg/mL | 1.75 µg/mL | 1.75 µg/mL | C=CC[N+]1(C)CCN(S(=O)(=O)CCCCCCCCCCC)CC1 [Example 112, 1-allyl-1-methyl-4-(undecane-1-sulfonyl)piperazin-1-ium bromide] | – | – | – | – | – | – | – |
| 0.41 µg/mL | 1.05 µg/mL | 1.22 µg/mL | 1.23 µg/mL | CCCCCCCCCCCCCCS(=O)(=O)N1CC[N+](CC)(Cc2ccccc2)CC1 [Example 113, 1-benzyl-1-ethyl-4-(tetradecane-1-sulfonyl)piperazin-1-ium bromide] | – | – | – | – | – | – | – |
| 2.01 µg/mL | 2.32 µg/mL | 3.16 µg/mL | 2.24 µg/mL | CCCCCCCCCCCCCCCCCCS(=O)(=O)N1CC[N+](CC)(Cc2ccc(C(C)(C)C)cc2)CC1 [Example 114, 1-(4-t-butylbenzyl)-1-ethyl-4-(octadecane-1-sulfonyl)piperazin-1-ium bromide] | – | – | – | – | – | – | – |
| 0.48 µg/mL | 2.01 µg/mL | 1.07 µg/mL | 0.91 µg/mL | CCCCCCCCCCCCCCCCCCS(=O)(=O)N1CC[N+](C)(Cc2ccccc2)CC1 [Example 115, 1-benzyl-1-methyl-4-(octadecane-1-sulfonyl)piperazin-1-ium bromide] | – | – | – | – | – | – | – |
| 0.36 µg/mL | 0.29 µg/mL | 0.25 µg/mL | 0.59 µg/mL | CCCCCCCCCCCCCCCC(=O)N1CCC[N+](C)(CC)CC1 (stereo not drawn) [Example 116, 1-ethyl-1-methyl-4-palmitoyl-1,4-diazepan-1-ium iodide] | – | – | – | – | – | – | – |
| 0.5 µg/mL | 1.07 µg/mL | 0.6 µg/mL | 2.68 µg/mL | CCCCCCCCCCCC(=O)N1CCC[N+](C)(C)CC1 [Example 117, 4-dodecanoyl-1,1-dimethyl-1,4-diazepan-1-ium iodide] | – | – | – | – | – | – | – |
| 0.78 µg/mL | 2.18 µg/mL | 0.87 µg/mL | 3.84 µg/mL | C=CC[N+]1(C)CCCN(C(=O)CCCCCCCCCCC)CC1 (stereo not drawn) [Example 118, 1-allyl-4-dodecanoyl-1-methyl-1,4-diazepan-1-ium bromide] | – | – | – | – | – | – | – |
| 0.57 µg/mL | 1.48 µg/mL | 0.36 µg/mL | 2.48 µg/mL | CCCCCCCCCCCC(=O)N1CCC[N+](C)(Cc2ccc(OC)cc2)CC1 (stereo not drawn) [Example 119, 4-dodecanoyl-1-(4-methoxybenzyl)-1-methyl-1,4-diazepan-1-ium chloride] | – | – | – | – | – | – | – |
| 0.75 µg/mL | 0.74 µg/mL | 0.2 µg/mL | 1.44 µg/mL | C=CC[N+]1(C)CCCN(C(=O)CCCCCCCCCCCCCCC)CC1 (stereo not drawn) [Example 120, 1-allyl-1-methyl-4-palmitoyl-1,4-diazepan-1-ium bromide] | – | – | – | – | – | – | – |
| – | – | – | – | CCCCCCCCCCCCCCCC(=O)N1CCC[N+](C)(Cc2ccc(F)cc2)CC1.[Br-] (stereo not drawn) [Example 121, 1-(4-fluorobenzyl)-1-methyl-4-palmitoyl-1,4-diazepan-1-him bromide] | 0.46 µg/mL | 1.09 µg/mL | 0.63 µg/mL | 0.83 µg/mL | – | – | – |
| 0.4 µg/mL | 0.4 µg/mL | 0.21 µg/mL | 0.94 µg/mL | CCCCCCCCCCCCCCCC(=O)N1CCC[N+](C)(C)CC1 [Example 122, 4-hexadecanoyl-1,1-dimethyl-1,4-diazepan-1-ium iodide] | – | – | – | – | – | – | – |
| 0.36 µg/mL | 0.49 µg/mL | 0.08 µg/mL | 0.98 µg/mL | CCCCCCCCCCCCCC(=O)N1CCC[N+](C)(C)CC1 [Example 123, 1,1-dimethyl-4-tetradecanoyl-1,4-diazepan-1-ium iodide] | – | – | – | – | – | – | – |
| 0.45 µg/mL | 1 µg/mL | 0.31 µg/mL | 1.16 µg/mL | CCCCCCCCCCCCCC(=O)N1CCC[N+](C)(Cc2ccccc2)CC1 (stereo not drawn) [Example 124, 1-benzyl-1-methyl-4-tetradecanoyl-1,4-diazepan-1-ium bromide] | – | – | – | – | – | – | – |
| 0.35 µg/mL | 0.8 µg/mL | 0.53 µg/mL | 0.86 µg/mL | CCCCCCCCCCCCCCCC(=O)N1CCC[N+](C)(Cc2ccccc2)CC1 (stereo not drawn) [Example 125, 1-benzyl-1-methyl-4-palmitoyl-1,4-diazepan-1-ium bromide] | – | – | – | – | – | – | – |
| 0.18 µg/mL | 0.44 µg/mL | 0.26 µg/mL | 0.45 µg/mL | C=CC[N+]1(C)CCCN(C(=O)CCCCCCCCCCCCC)CC1 (stereo not drawn) [Example 127, 1-allyl-1-methyl-4-tetradecanoyl-1,4-diazepan-1-ium bromide] | – | – | – | – | – | – | – |
| 0.18 µg/mL | 0.82 µg/mL | 0.46 µg/mL | 0.71 µg/mL | CCCCCCCCCCCCCC(=O)N1CCC[N+](C)(Cc2cccc([N+](=O)[O-])c2)CC1 (stereo not drawn) [Example 128, 1-methyl-1-(3-nitrobenzyl)-4-tetradecanoyl-1,4-diazepan-1-ium bromide] | – | – | – | – | – | – | – |
| 0.24 µg/mL | 0.57 µg/mL | 0.26 µg/mL | 0.67 µg/mL | CCCCCCCCCCCCCCCCCC(=O)N1CCC[N+](C)(C)CC1 [Example 129, 1,1-dimethyl-4-stearoyl-1,4-diazepan-1-ium iodide] | – | – | – | – | – | – | – |
| 0.45 µg/mL | 1.1 µg/mL | 0.94 µg/mL | 1.48 µg/mL | CCCCCCCCCCCCCC(=O)N1CCC[N+](C)(Cc2ccc(F)cc2)CC1 (stereo not drawn) [Example 133, 1-(4-fluorobenzyl)-1-methyl-4-tetradecanoyl-1,4-diazepan-1-ium bromide] | – | – | – | – | – | – | – |
| – | – | – | – | COc1cccc2c1C(=O)c1c(O)c3c(c(O)c1C2=O)C[C@@](O)(C(=O)CO)C[C@@H]3O[C@H]1C[C@H](N)[C@H](O)[C@H](C)O1 [adriamycin] | – | – | – | – | four | 74.4% | 69.8% |
